The values below come from patent publication US11466044B2 (WAYNE STATE UNIVERSITY, priority 2017, dated 2022).

As usually defined, the MIC is the lowest concentration found to suppress growth. A word on the zone of inhibition: it is the extent of the growth-free halo in a diffusion test. Read a high zone of inhibition as wide suppression of growth.

For assay [1], the system named is E coli wild type. Kind of assay: MIC by broth microdilution, wild type E coli. It is filed as cell-based. To be noted: for MIC: Escherichia coli.
Assay [2] has as its system P aeruginosa. Kind of assay: MIC by broth microdilution, P aeruginosa isolates. Type of assay: cell-based, Pseudomonas aeruginosa. To be noted: strain AG220 Pseudomonas aeruginosa ATCC27853. (Broth dilution looks for growth in wells or tubes with falling amounts of substance.)
The subject of assay [3] is E coli carrying specific resistance determinants. Nature of the assay: MIC by broth microdilution, E coli carrying specific resistance determinants. To be noted: for MIC: Escherichia coli. Type of assay: cell-based.
For assay [4], the system named is Klebsiella pneumonia AG215. Nature of the assay: MIC by broth microdilution, Klebsiella pneumonia. It is filed as cell-based. To be noted: strain AG215 Klebsiella pneumonia.
Assay [5] concerns Acinetobacter baumannii pittii AG225. Kind of assay: MIC by broth microdilution, Acinetobacter baumannii. It is filed as cell-based. The following applies: strain AG225 Acinetobacter baumannii pittii.
Assay [6] concerns Enterobacter cloacae AG290. Nature of the assay: MIC by broth microdilution, Enterobacter cloacae. Type of assay: cell-based. To be noted: strain AG290 Enterobacter cloacae.
Assay [7] concerns N. gonorrhoeae. Nature of the assay: Disk diffusion, N. gonorrhoeae. Type of assay: cell-based.
The test system of assay [8] is M. smegmatis SZ380. Kind of assay: MIC by broth microdilution, M. smegmatis. To be noted: Mycolicibacterium smegmatis, SZ380, read-out: MIC SZ380 M. smegmatis, strain SZ380 Mycobacterium smegmatis.

Values after ≈ are worked out from the molar mass of the structure shown. Like-named read-outs stand apart in the source and are kept apart here.

In the case of `CCC[C@@H]1C(CO)O[C@H](O[C@@H]2C(N)C[C@@H](N)C(O)[C@H]2O[C@@H]2O[C@H](CO)[C@H](O[C@H]3OC(CN)[C@@H](O)C(O)C3N)C2O)[C@@H](N)C1O` (some centres unmarked) [Compound 079], the MIC in assay [1] (ATCC25922, strain AG212 E. coli (ATCC25922), read-out: MIC AG212 E. coli) is 1 µg/mL (≈ 1.56 µM); in assay [1] (clinical isolate AG160 WT, Table 2 (Example 4), read-out: MIC AG160 E. coli WT), 1 µg/mL (≈ 1.56 µM); in assay [1] (engineered strain pH430 WT, Table 2 (Example 4), read-out: MIC pH430 E. coli WT), 0.5 µg/mL (≈ 0.779 µM); in assay [2] (read-out: MIC AG220 P. aerugin) it was 4 µg/mL (≈ 6.23 µM); in assay [3] (read-out: MIC AG037 E. coli APH(3′)-III), over 64 µg/mL; in assay [3] (read-out: MIC AG163 E. coli APH(3′)-I), over 64 µg/mL. The MIC was 1 to 2 µg/mL (≈ 1.56 to 3.12 µM) in assay [3] (read-out: MIC AG166 E. coli APH(3′)-II); over 32 µg/mL in assay [3] (read-out: MIC pH421 E. coli APH(3′)-I); 4 µg/mL (≈ 6.23 µM) in assay [3] (read-out: MIC pH422 E. coli APH(3′)-II); 1 µg/mL (≈ 1.56 µM) in assay [3] (read-out: MIC pH423 E. coli APH(3′)-VI); 0.5 µg/mL (≈ 0.779 µM) in assay [4] (Klebsiella pneumoniae, read-out: MIC AG215 K. pneumon); 1 to 2 µg/mL (≈ 1.56 to 3.12 µM) in assay [5]. Besides, the MIC in assay [6] (read-out: MIC AG290 E. cloacae) and in assay [8] was 0.5 µg/mL (≈ 0.779 µM) in each case. This compound yielded a zone of inhibition at 25 nmol/disc in assay [7] (Neisseria gonorrhoeae) of 16 mm.

In the case of `CCC[C@@H]1C(CO)O[C@H](O[C@@H]2C(N)C[C@@H](NC(=O)[C@@H](O)CCN)C(O)[C@H]2O[C@@H]2O[C@H](CO)[C@H](O[C@H]3C[C@@H](CN)[C@@H](O)C(O)C3N)C2O)[C@@H](N)C1O` (some centres unmarked) [Compound 187], in assay [1] (clinical isolate AG160 WT, Table 2 (Example 4)), the “MIC AG160 E. coli WT” value was 2 µg/mL (≈ 2.7 µM). Moreover, in assay [1] (engineered strain pH430 WT, Table 2 (Example 4)), the “MIC pH430 E. coli WT” value is recorded as 0.5-1 μg/ml. Besides, the “MIC AG212 E. coli” value in assay [1] (strain AG212 E. coli (ATCC25922)) came out at 2 µg/mL (≈ 2.7 µM). Also, the “MIC AG220 P. aerugin” value in assay [2] fell in the range of 2 to 4 µg/mL. Moreover, the “MIC AG163 E. coli APH(3′)-I” value in assay [3] (clinical isolate AG163 APH(3′)-I, Table 2 (Example 4)) worked out at 2 µg/mL (≈ 2.7 µM). The “MIC AG166 E. coli APH(3′)-II” value in assay [3] (clinical isolate AG166 APH(3′)-II, Table 2 (Example 4)) is 2 µg/mL (≈ 2.7 µM). Besides, the “MIC AG037 E. coli APH(3′)-III” value in assay [3] (engineered strain AG037 APH(3′)-III, Table 2 (Example 4)) came out at 8 µg/mL (≈ 10.8 µM). Moreover, the “MIC pH421 E. coli APH(3′)-I” value in assay [3] (engineered strain pH421 APH(3′)-I, Table 2 (Example 4)) is reported as 4-8 μg/ml. The “MIC pH422 E. coli APH(3′)-II” value in assay [3] (engineered strain pH422 APH(3′)-II, Table 2 (Example 4)) was 0.5-1 μg/ml. Further, the “MIC pH423 E. coli APH(3′)-VI” value in assay [3] (engineered strain pH423 APH(3′)-VI, Table 2 (Example 4)) came out at 1 μg/ml. For the same compound, the “MIC AG215 K. pneumon” value in assay [4] turned out to be 0.5 µg/mL (≈ 0.675 µM). Further, the “MIC AG225 A. baumannii” value in assay [5] was found to be 2 µg/mL (≈ 2.7 µM). For the same compound, in assay [6], the “MIC AG290 E. cloacae” value was 0.5 to 1 µg/mL. In addition, the “Disk diffusion 25 nmol N. gonorrhoeae” value in assay [7] (25 nmol) was found to be 11 mm.
